Two molecules from patent US20250340520A1, “CRYSTALLINE FORMS OF SODIUM (5-(4-BROMOPHENYL)-6-(2-((5-BROMOPYRIMIDIN-2-YL)OXY)ETHOXY)PYRIMIDIN-4-YL)(SULFAMOYL)AMIDE” (IDORSIA PHARMACEUTICALS LTD, priority 2022, published 2025) can be followed below.

The nature of this series: Comparative stability: HPLC assay of samples stored in open vials. It counts as physicochemical. Conditions: for assay after storage: open vial; for Initial assay: before storage, HPLC assay. As to the method: The assay was determined by use of UV-HPLC (e.g., Shimadzu Nexera X2 System) with an autosampler temperature set at 25° C. and a column temperature set at 50° C. Typically 1 μL of sample is injected and separation is obtained by use of a Phenomenex Gemini 5.0 μm 110 Å, 50×2.0 mm column using a flow of 1.5 mL/min. Samples are typically prepared by solubilization in acetonitrile/carbonate buffer pH10 1/1. A gradient method is used with solvent A consisting of Trizma base buffer 50 mM pH 9 (adjusted with HCl) and solvent B consisting of Acetonitrile+5% (v/v) Trizma base buffer 50 mM pH 9 (adjusted with HCl). Following gradient is typically used: […]

The molecule `NS(=O)(=O)Nc1ncnc(OCCOc2ncc(Br)cn2)c1-c1ccc(Br)cc1` [{5-(4-bromo-phenyl)-6-[2-(5-bromo-pyrimidin-2-yloxy)-ethoxy]-pyrimidin-4-yl}-sulfamide, reference compound] had an Initial assay of 96.9%. Also, the assay after storage (40° C., 7 days, 11% RH) came to 97.2%. Also, the assay after storage (40° C., 7 days, 75% RH) was determined as 91.8%. The molecule further displayed an assay after storage (60° C., 7 days, 11% RH) of 96.7%. This molecule also showed an assay after storage (60° C., 7 days, 75% RH) of 93.7%. The molecule further gave an assay after storage (80° C., 3 days, 11% RH) of 89.7%. Further, the assay after storage (80° C., 3 days, 75% RH) was 0.3%.
Consider `NS(=O)(=O)[N-]c1ncnc(OCCOc2ncc(Br)cn2)c1-c1ccc(Br)cc1.[Na+]` [COMPOUND in crystalline form 1, sodium (5-(4-bromophenyl)-6-(2-((5-bromopyrimidin-2-yl)oxy)ethoxy)pyrimidin-4-yl)(sulfamoyl)amide], for which the Initial assay came to 104.1%. Further, the assay after storage (40° C., 7 days, 11% RH) is on record as 104.4%. In addition, for the setting “40° C., 7 days, 75% RH”, the assay after storage was 104.0%. Under “60° C., 7 days, 11% RH”, this molecule yielded an assay after storage of 104.5%. This molecule also gave an assay after storage (60° C., 7 days, 75% RH) of 102.6%. The molecule also displayed an assay after storage (80° C., 3 days, 11% RH) of 103.4%. This molecule also returned an assay after storage (80° C., 3 days, 75% RH) of 72.4%. For the same molecule, under “under certain experimental conditions of Table 5”, the “chemical stability in comparison to aprocitentan free acid form (in crystalline Form A)” value is listed as “superior chemical stability”.
